# Patent US8389544B2, “Isoquinolone compounds as subtype-selective agonists for melatonin receptors MT1 and MT2” (The Hong Kong University of Science and Technology, priority 2007, dated 2013)
# pEC50: −log10 of the molar value. Read-outs that look alike come from different tables or passages of the source.
# Key:
# MT1 receptor = MT1 receptor (Homo sapiens, UniProt P48039); test: FLIPR Ca2+ mobilization assay, MT1; format: cell-based; parameters: expressed in transfected cells; host or cells: COS-7 (monkey kidney fibroblast); details: for % Response of 2-IMT / EC50 / Log(EC50) ± SEM: Table 1; for % Response of 2-IMT: MT1, relative to 2-IMT response; for EC50 / Log(EC50) ± SEM: MT1 in COS-7 cells with chimeric G protein, log value, negative, NSR = no significant response; for EC50: read-out: Log(EC50) ± SEM (converted)
# Sequence of MT1 receptor (P48039 whole entry): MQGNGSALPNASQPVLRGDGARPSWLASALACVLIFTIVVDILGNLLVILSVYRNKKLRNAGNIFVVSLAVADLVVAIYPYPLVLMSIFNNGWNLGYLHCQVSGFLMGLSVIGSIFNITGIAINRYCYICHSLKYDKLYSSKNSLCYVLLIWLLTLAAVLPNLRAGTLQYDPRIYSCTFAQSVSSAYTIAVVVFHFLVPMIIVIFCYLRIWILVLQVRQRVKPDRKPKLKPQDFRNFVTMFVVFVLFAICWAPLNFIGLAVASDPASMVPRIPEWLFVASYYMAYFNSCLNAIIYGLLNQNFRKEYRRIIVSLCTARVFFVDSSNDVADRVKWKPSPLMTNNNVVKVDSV
# Experimental: (§1) 1. FLIPR Ca^2+ Mobilization Assay
# (§2) This assay indicates the ability of the novel compounds to activate MT1 and MT2 receptors by measuring downstream events of the activated receptor, in this case intracellular calcium mobilization.
# (§3) 1. Intracellular Ca^2+ Mobilization Assay Using Fluorometric Imaging Plate Reader (FLIPR®)
# (§4) An intracellular calcium mobilization assay was performed to screen the isoquinolone compounds against the two melatonin receptor subtypes, MT1 and MT2 on the fluorometric imaging plate reader (FLIPR®). In order to facilitate the screening process in a high-throughput manner, chimeric G proteins with the ability to couple to a range of GPCR as well as activate intracellular Ca^2+ were employed. The melatonin receptor subtype (either MT1 or MT2) was co-expressed with the G-protein chimeras in COS-7 (monkey kidney fibroblast) cells. During the assay, cells were exposed to the novel isoquinolone compounds and the corresponding change in fluorescence was measured. Both single point and dose-dependant assays were performed for each isoquinolone compound and based on the latter a dose response curve was generated and the corresponding EC50 for each receptor subtype determined.
# (§5) Specifically, COS-7 cells were seeded at a density of 20,000 cells/well into 96-well plates designed for FLIPR assays, using Opti-MEM with 10% FCS at a volume of 100 μl/well. Transfection was carried out using Lipofectamine 2000® reagent. In each well, 0.2 μg of the GPCR and G protein cDNA were diluted with 25 μl of Opti-MEM and 0.2 μl of Lipofectamine 2000® was diluted with another 25 μl of Opti-MEM. They were added to appropriate wells after the two components were mixed for 20 min.
# (§6) After 48 hours of incubation post-transfection, 50 μl of the transfection medium was removed from each well followed by the labelling of transfected cells with 100 μl of 2 μM Fluo-4 in calcium containing HBSS (Hank's balanced salt solution) with 20 mM HEPES (N-[2-hydroxyethyl]piperazine—N′-[2-ethanesulfonic acid]; pH 7.5) and 2.5 mM probenecid (anion exchanger inhibitor, freshly prepared) for 1 hour at 37° C. 70 μl of 3× drugs (isoquinolinone compounds encompassing the invention) were prepared and aliquoted into the corresponding wells in the V-well drug plate. Changes in fluorescence were detected in the FLIPR 96 with an excitation wavelength of 488 nm. The background fluorescence was adjusted to the range of 8,000 to 12,000 units by altering the laser power and exposure time (typically 0.4 W and 0.4 sec, respectively) for the FLIPR setup. 50 μl of each agonist solution was added to the corresponding wells and the fluorescent emission (between 510 and 560 nm) was monitored for 3 min. Results were expressed as change in fluorescent intensity units (FIU). Concentration-response curves were generated by determining the maximal change in FIU of each data set. Numerical analysis of the statistics and EC50 (median effective concentration) values were performed on GraphPad Prism version 3.03.
# (§7) Then the intracellular Ca^2+ mobilization assays using the Fluorometric Imaging Plate Reader (FLIPR®) were performed as described above.
# MT2 receptor = biological target: T1, MT2 receptor (Homo sapiens, UniProt P49286); test: FLIPR Ca2+ mobilization assay, MT2; format: cell-based; parameters: expressed in transfected cells; host or cells: COS-7 (monkey kidney fibroblast); details: for Log(EC50) ± SEM / EC50 / % Response of 2-IMT: Table 1; for Log(EC50) ± SEM / EC50: MT2 in COS-7 cells with chimeric G protein, log value, negative, NSR = no significant response; for EC50: read-out: Log(EC50) ± SEM (converted); for Emax: read-out: % Response of 2-IMT; for agonist character / receptor subtype selectivity in words: FLIPR results, MT1 versus MT2; for pEC50: read-out: EC50 MT2; for % Response of 2-IMT: MT2, relative to 2-IMT response
# T1 sequence (P49286 1-362): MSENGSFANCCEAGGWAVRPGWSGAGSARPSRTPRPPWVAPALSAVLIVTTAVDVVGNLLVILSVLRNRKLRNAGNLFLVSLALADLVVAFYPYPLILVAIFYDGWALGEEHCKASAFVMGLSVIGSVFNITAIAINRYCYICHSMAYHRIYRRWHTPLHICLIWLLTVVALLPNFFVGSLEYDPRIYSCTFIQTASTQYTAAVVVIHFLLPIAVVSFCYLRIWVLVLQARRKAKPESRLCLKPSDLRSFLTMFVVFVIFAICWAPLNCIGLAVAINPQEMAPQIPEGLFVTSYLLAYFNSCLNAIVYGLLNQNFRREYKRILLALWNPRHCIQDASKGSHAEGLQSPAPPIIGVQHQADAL
# Experimental: as §1, §2, §3, §4, §5, §6, §7
% Response of 2-IMT (MT1 receptor),Log(EC50) ± SEM (MT2 receptor),EC50 (MT2 receptor),Emax (MT2 receptor),Log(EC50) ± SEM (MT1 receptor),SMILES,also measured
71.9%,NSR,,,,"COc1cc2c(=O)n(C)ccc2cc1O [IS001, 6-Hydroxyl-7-methoxyl-2-methyl-1(2H)-isoquinolone]",EC50 (MT1 receptor): 1580 nM
31.7%,,871 nM,47%,,"COc1cc2ccn(C)c(=O)c2cc1O [IS002, 7-hydroxyl-6-methoxyl-2-methyl-1(2H)-isoquinolone]",EC50 (MT1 receptor): 1740 nM
,NSR,,,NSR,COc1cc2ccn(C)c(=O)c2cc1OCc1ccccc1 [IS003],
30.5%,,,62.9%,,COc1ccc2c(=O)n(C)ccc2c1OCc1ccccc1 [IS005],"activity / activation at MT1 compared to 2-IMT (MT1 receptor; running text b158, b160): 31%; pEC50 (MT1 receptor; running text b158, read-out: EC50 MT1): 8.24; activity / efficacy at MT2 compared to 2-IMT (MT2 receptor): 63%; agonist character / receptor subtype selectivity in words (MT2 receptor): partial agonist; pEC50 (MT2 receptor): 7.31"
,,3.47 nM,49.1%,NSR,C=CCOc1c(OC)ccc2c(=O)n(C)ccc12 [IS007],pEC50 (MT2 receptor): 8.45
,,562 nM,57.6%,NSR,COc1ccc2c(=O)n(C)ccc2c1OCCCc1ccccc1 [IS008],agonist character / receptor subtype selectivity in words (MT2 receptor): activated MT2 only
,,123 nM,37.4%,NSR,COc1ccc2c(=O)n(C)ccc2c1OCc1ccc(Br)cc1 [IS009],agonist character / receptor subtype selectivity in words (MT2 receptor): activated MT2 only
,−6.35 ± 0.06,,,NSR,COc1ccc(C(=O)COc2c(OC)ccc3c(=O)n(C)ccc23)cc1 [IS010],% Response of 2-IMT (MT2 receptor): 53.0%
75.0%,−6.00 ± 0.01,,,−5.22 ± 1.28,COc1cc2ccn(C)c(=O)c2cc1OCCCc1ccccc1 [IS013],% Response of 2-IMT (MT2 receptor): 101.9%
65.3%,,2750 nM,145%,,COc1cc2c(=O)n(C)ccc2cc1OCc1ccccc1 [IS016],EC50 (MT1 receptor): 1350 nM
,,107 nM,107%,NSR,COc1cc2c(=O)n(C)ccc2cc1OCCCc1ccccc1 [IS017],
67.5%,−5.52,,,−5.98 ± 0.04,COc1ccc(O)c2c(=O)n(C)ccc12 [IS030],% Response of 2-IMT (MT2 receptor): 39.4%
,,525 nM,42.1%,NSR,Cn1ccc2ccc(O)c(O)c2c1=O [IS037],
,,6.17 nM,44.7%,NSR,COc1cc2ccn(C)c(=O)c2cc1OCCCCCl [IS098],
,,603 nM,65.8%,NSR,"COc1cc2ccn(C)c(=O)c2cc1OCCCI [IS101, 7-(3-iodopropyloxyl)-6-methoxyl-2-methyl-1(2H)-isoquinolone]",
,−5.57 ± 0.75,,,NSR,COc1ccc2c(=O)n(C)ccc2c1OCc1ccc(C(C)(C)C)cc1 [IS532],% Response of 2-IMT (MT2 receptor): 22.3%
